In the series the test system is GENE-TOX genotoxicity assays, various organisms and cells. The experiment in a line: GENE-TOX mutagenicity studies. The following applies: for call: Assay Type: In vivo carcinogenicity studies.
Where [1] appears, read: Species/Cell Type: Saccharomyces cerevisiae, Assay Type: Mitotic recombination or gene conversion, Assay Code: YEH+, Evaluation Type: Evaluation A (Pre-1980).
Where [2] appears, read: Species/Cell Type: Salmonella typhimurium (one or more of the five standard strains: TA98, TA100, TA1535, TA1537, and TA1538), Assay Type: Histidine reverse gene mutation, Ames assay, Assay Code: SAL+, Evaluation Type: Evaluation A (Pre-1980).
[3] abbreviates: Species/Cell Type: Mammalian polychromatic erythrocytes, Assay Type: Micronucleus test, chromosome aberrations, Assay Code: MNTT, Evaluation Type: Evaluation B (Post-1980).
The mark [4] stands for this setting: Species/Cell Type: Saccharomyces cerevisiae, Assay Type: Mitotic recombination or gene conversion, Assay Code: YEC-, Evaluation Type: Evaluation A (Pre-1980).
[5] abbreviates: Species/Cell Type: Drosophila melanogaster, Assay Type: Sex-linked recessive lethal gene mutation, Assay Code: SRLT, Evaluation Type: Evaluation A (Pre-1980).
The mark [6] stands for this setting: Species/Cell Type: Human lymphocytes, Assay Type: Sister-chromatid exchange (SCE) in vitro, Assay Code: SCL+D, Dose Response: With dose response, Evaluation Type: Evaluation B (Post-1980).
Where [7] appears, read: Species/Cell Type: Human, Assay Type: Sister-chromatid exchange (SCE) in vitro, Assay Code: SC1+D, Dose Response: With dose response, Evaluation Type: Evaluation B (Post-1980).
Where [8] appears, read: Species/Cell Type: Salmonella typhimurium (one or more of the five standard strains: TA98, TA100, TA1535, TA1537, and TA1538), Assay Type: Histidine reverse gene mutation, Ames assay, Assay Code: SALT, Evaluation Type: Evaluation A (Pre-1980).
The mark [9] stands for this setting: Species/Cell Type: Chinese hamster lung (V79) cells, Assay Type: Forward gene mutation at the HPRT or ouabain locus, Assay Code: V79-, Evaluation Type: Evaluation A (Pre-1980).
[10] abbreviates: Species/Cell Type: Nonhuman, Assay Code: CCGT, Evaluation Type: Evaluation A (Pre-1980).
Where [11] appears, read: Species/Cell Type: Salmonella typhimurium (one or more of the five standard strains: TA98, TA100, TA1535, TA1537, and TA1538), Assay Type: Histidine reverse gene mutation, Ames assay, Assay Code: SAL+*, Activation: With metabolic activation, Evaluation Type: Evaluation A (Pre-1980).

Each structure is given as a SMILES string. Active and inactive are the calls of the source. No rule for the calls is given here.

For the molecule `ClCCl`, the mutagenic call is, setting by setting: (Species/Cell Type: Drosophila melanogaster, Assay Type: Sex-linked recessive lethal gene mutation, Assay Code: SRL-, Evaluation Type: Evaluation A (Pre-1980)) “inactive; negative”; (Species/Cell Type: Fischer rat embryo (RLV/1706) cells, Assay Type: Cell transformation, viral enhanced, Assay Code: CTR+, Evaluation Type: Evaluation A (Pre-1980)) “active; positive”; (Species/Cell Type: Mammalian polychromatic erythrocytes, Assay Type: Micronucleus test, chromosome aberrations, Assay Code: MNT-, Evaluation Type: Evaluation B (Post-1980)) “inactive; negative”; (Species/Cell Type: Nonhuman, Assay Type: Sister-chromatid exchange (SCE) in vitro, Assay Code: SC2+D, Dose Response: With dose response, Evaluation Type: Evaluation B (Post-1980)) “active; positive”; (Species/Cell Type: Saccharomyces cerevisiae, Assay Type: Mitotic recombination or gene conversion, Assay Code: YEC+, Evaluation Type: Evaluation A (Pre-1980)) “active; positive”; under setting [1], “active; positive”. Moreover, the mutagenic call is, setting by setting: (Species/Cell Type: Saccharomyces cerevisiae, Assay Type: Reverse gene mutation, Assay Code: YER+, Evaluation Type: Evaluation A (Pre-1980)) “active; positive”; under setting [2], “active; positive”.
`CN(N=O)C(=O)NC1O[C@H](CO)[C@@H](O)[C@H](O)[C@H]1O` (stereo not given in full): for the setting “Species/Cell Type: Chinese hamster lung (V79) cells, Assay Type: Forward gene mutation at the HPRT or ouabain locus, Assay Code: V79+, Evaluation Type: Evaluation A (Pre-1980)”, the mutagenic call is “active; positive”.
Take `Oc1cc(Cl)ccc1Oc1ccc(Cl)cc1Cl`: the mutagenic call is “no conclusion” under setting [3]; “inactive; negative” (Species/Cell Type: Mouse, Sex: Female, Assay Type: Spot test, gene mutation, Assay Code: MST-, Evaluation Type: Evaluation A (Pre-1980)); “active; positive” (Species/Cell Type: Saccharomyces cerevisiae, Assay Type: Forward gene mutation, Assay Code: YEF+, Evaluation Type: Evaluation A (Pre-1980)); “inactive; negative” under setting [4]; “active; positive” under setting [1].
On to `O=[N+]([O-])c1ccc(-c2csc(Cl)n2)o1`, for which the mutagenic call is, setting by setting: (Species/Cell Type: Escherichia coli WP2, Assay Type: Tryptophan reverse gene mutation, Assay Code: WP2+, Evaluation Type: Evaluation A (Pre-1980)) “active; positive”; (Species/Cell Type: Escherichia coli WP2 UVRA, Assay Type: Tryptophan reverse gene mutation, Assay Code: WPU+, Evaluation Type: Evaluation A (Pre-1980)) “active; positive”.
Regarding `CCCCOc1ccc(CC(=O)NOC(=O)CC)cc1`, the mutagenic call (Species/Cell Type: Nonhuman, Assay Type: Sister-chromatid exchange (SCE) in vitro, Assay Code: SC2+, Evaluation Type: Evaluation B (Post-1980)) is “active; positive”.
As for `O=c1[nH]c(=O)c2[nH]cnc2[nH]1`, under setting [5], the mutagenic call is given as “no conclusion”.
For `O=C(O)c1ccccc1[N+](=O)[O-]`, the mutagenic call under setting [2] was “active; positive”.
Take `CC=Cc1ccccc1O`: the mutagenic call by setting is: under setting [6], “active; positive”; under setting [7], “active; positive”.
For `O=C1OC(=O)c2ccccc21`, the call (Species/Cell Type: Nonhuman, Assay Code: CCG-, Evaluation Type: Evaluation A (Pre-1980)) is “inactive; negative”.
Turning to `COC(F)(F)C(Cl)Cl`, the mutagenic call (Species/Cell Type: Mouse, Sex: Male, Assay Type: Sperm morphology, Assay Code: SPI-, Evaluation Type: Evaluation A (Pre-1980)) is “inactive; negative”; the mutagenic call (Species/Cell Type: Nonhuman, Assay Type: Sister-chromatid exchange (SCE) in vitro, Assay Code: SC2T, Evaluation Type: Evaluation B (Post-1980)) was “no conclusion”; the mutagenic call under setting [8] was “no conclusion”.
As to `CC(C)(C)OOCO`, the mutagenic call (Species/Cell Type: Neurospora crassa, Assay Type: Reverse gene mutation, Assay Code: NER+, Evaluation Type: Evaluation A (Pre-1980)) was “active; positive”.
For `CN(C)CCCN1c2ccccc2Sc2ccc(Cl)cc21`, the mutagenic call by setting is: under setting [9], “inactive; negative”; under setting [6], “active; positive”; under setting [7], “active; positive”; (Species/Cell Type: Nonhuman, Assay Type: Sister-chromatid exchange (SCE) in vitro, Assay Code: SC2+D, Dose Response: With dose response, Evaluation Type: Evaluation A (Pre-1980)) “active; positive”; (Species/Cell Type: Nonhuman, Assay Type: Sister-chromatid exchange (SCE) in vivo, Assay Code: SC3T, Evaluation Type: Evaluation B (Post-1980)) “no conclusion”. Further, the call under setting [10] is listed as “no conclusion”.
`c1ncncn1`: the mutagenic call under setting [5] is given as “no conclusion”.
With `Cc1ccc2cc3c(cc(-c4ccccc4O)c4ccccc43)c3c2c1CC3`, the mutagenic call under setting [9] is “inactive; negative”.
For the molecule `Cc1c(N)nc(C)c2c1[nH]c1ccccc12`, the mutagenic call reads like this: under setting [6], “active; positive”; under setting [7], “active; positive”; under setting [11], “active; positive”; (Species/Cell Type: Syrian hamster embryo (SHE) cells, Assay Type: Cell transformation, clonal assay, Assay Code: CTC+, Evaluation Type: Evaluation A (Pre-1980)) “active; positive”. Moreover, where the note is “Species/Cell Type: Nonhuman, Assay Code: CCG+, Evaluation Type: Evaluation A (Pre-1980)”, the call was “active; positive”.
For `NC(=O)N(CC(=O)O)N=O`, the mutagenic call under setting [8] is “no conclusion”.
On to `Cc1ncc(COP(=O)(O)O)c(C)c1O`, for which the mutagenic call is “active; positive” under setting [6] and “active; positive” under setting [7].
For `C1=Cc2cc3cccc4ccc5ccc1c2c5c43`, the call (Species/Cell Type: Nonhuman, Assay Code: CCG+L, Evaluation Type: Evaluation A (Pre-1980)) is “active; positive”. For the same molecule, the mutagenic call under setting [11] was “active; positive”.
In the case of `CC(C)N1C(=O)c2ccccc2NS1(=O)=O`, the mutagenic call under setting [4] was “inactive; negative”.
In the case of `Nc1ccc(-c2ccc(-c3ccc(N)cc3)cc2)cc1`, the mutagenic call (Species/Cell Type: Mammalian polychromatic erythrocytes, Assay Type: Micronucleus test, chromosome aberrations, Assay Code: MNT+, Evaluation Type: Evaluation B (Post-1980)) was “active; positive”.
`OC(O)C(F)(F)F`: the mutagenic call under setting [8] was “no conclusion”.
As to `[Cr]`, the call under setting [10] is listed as “no conclusion”.
As to `Nc1cc(Cl)c(Cl)cc1N`, under setting [3], the mutagenic call is “no conclusion”.
As to `Cc1cccc2ncccc12`, under setting [11], the mutagenic call was “active; positive”.
In the case of `NCC(O)CCl` (stereo not given), under “Species/Cell Type: Rodents, Sex: Male, Assay Type: Dominant lethal test, Assay Code: DLT-, Evaluation Type: Evaluation A (Pre-1980)”, the mutagenic call is “inactive; negative”.
Turning to `O=c1[nH]c(=O)n([C@H]2C[C@H](O)[C@@H](CO)O2)cc1I`, the mutagenic call reads like this: (Species/Cell Type: Arabidopsis species, Assay Type: Gene mutation, Assay Code: ARM-, Evaluation Type: Evaluation A (Pre-1980)) “inactive; negative”; under setting [5], “no conclusion”; (Species/Cell Type: Escherichia coli polA (W3119 vs P3478), Assay Type: Rec-assay, DNA effects (bacterial DNA repair), Assay Code: RE1T, Evaluation Type: Evaluation A (Pre-1980)) “no conclusion”; (Species/Cell Type: Human diploid fibroblasts, Assay Type: Unscheduled DNA synthesis (UDS) in vitro, DNA effects, Assay Code: UDH-, Evaluation Type: Evaluation A (Pre-1980)) “inactive; negative”; under setting [6], “active; positive”; under setting [7], “active; positive”. Also, the mutagenic call reads like this: (Species/Cell Type: Mammalian polychromatic erythrocytes, Assay Type: Micronucleus test, chromosome aberrations, Assay Code: MNTT, Evaluation Type: Evaluation A (Pre-1980)) “no conclusion”; (Species/Cell Type: Mouse, Sex: Male, Assay Type: Sperm morphology, Assay Code: SPI+, Evaluation Type: Evaluation A (Pre-1980)) “active; positive”; (Species/Cell Type: Saccharomyces cerevisiae, Assay Type: Mitotic recombination or gene conversion, Assay Code: YEH-*, Activation: With metabolic activation, Evaluation Type: Evaluation A (Pre-1980)) “inactive; negative”; (Species/Cell Type: Salmonella typhimurium (one or more of the five standard strains: TA98, TA100, TA1535, TA1537, and TA1538), Assay Type: Histidine reverse gene mutation, Ames assay, Assay Code: SAL-, Evaluation Type: Evaluation A (Pre-1980)) “inactive; negative”; (Species/Cell Type: Salmonella typhimurium, Assay Type: Forward and reverse gene mutation, host-mediated assay, Assay Code: HMA-, Evaluation Type: Evaluation A (Pre-1980)) “inactive; negative”; (Species/Cell Type: Syrian hamster embryo (SA7/SHE) cells, Assay Type: Cell transformation, viral enhanced, Assay Code: CT7+, Evaluation Type: Evaluation A (Pre-1980)) “active; positive”. Besides, for the setting “Species/Cell Type: Syrian hamster embryo (SHE) cells, Assay Type: Cell transformation, clonal assay, Assay Code: CTC-, Evaluation Type: Evaluation A (Pre-1980)”, the mutagenic call is “inactive; negative”.
Turning to `Cc1cccc2c1ccc1c3ccccc3ccc21`, the mutagenic call under setting [11] is “active; positive”.

For the origin of these results see PubChem BioAssay AID1259408 (Genetic Toxicology Data Bank (GENE-TOX), 2018).
